Patent US11274098B2, “Tricyclic compounds for use in treatment of proliferative disorders” (ARGONAUT THERAPEUTICS LIMITED, priority 2017, dated 2022)
pIC50: −log10 of the molar value.

What follows are molecules tested against human PRMT5/MEP50 (Homo sapiens (Human), UniProt O14744) (assay: PRMT5 chemiluminescent assay). Conditions: human PRMT5/MEP50 expressed in HEK293 cells; biotinylated histone peptide substrate; 60 min reaction; chemiluminescent readout.
Assay type: biochemical
Procedure: A PRMT5 chemiluminescent assay was used to measure the […] activity of PRMT5. Biotinylated histone peptides were synthesized and attached to 384-well plates. Compound serial dilutions were performed and added to the assay plate. Histone H4 monomethyl R^3 antibody was obtained from Abcam. A master mix for each well was prepared and human PRMT5/MEP50 (expressed in HEK293 cells) diluted in assay buffer to a concentration of 5 ng/μL. The reaction was incubated and slowly rotated for 60 minutes at the point of PRMT5/MEP50 addition. The supernatant from the wells was removed and blocking buffer was added to each well and rotated for 10 minutes. The primary antibody was diluted and added to every well for 60 minutes, before it was removed and the wells washed. The horse radish peroxidase (HRP)-coupled secondary antibody was diluted and added to each well with an incubation time of 30 minutes. The HRP chemiluminescent substrate was added to every well. The plate was read on a Flourstar Omega BMG Labtech instrument (Ortenberg, Germany) and the analysis of IC50 was performed using the Flourstar Omega BMG Labtech software.

Chain of human PRMT5/MEP50 (O14744 whole entry): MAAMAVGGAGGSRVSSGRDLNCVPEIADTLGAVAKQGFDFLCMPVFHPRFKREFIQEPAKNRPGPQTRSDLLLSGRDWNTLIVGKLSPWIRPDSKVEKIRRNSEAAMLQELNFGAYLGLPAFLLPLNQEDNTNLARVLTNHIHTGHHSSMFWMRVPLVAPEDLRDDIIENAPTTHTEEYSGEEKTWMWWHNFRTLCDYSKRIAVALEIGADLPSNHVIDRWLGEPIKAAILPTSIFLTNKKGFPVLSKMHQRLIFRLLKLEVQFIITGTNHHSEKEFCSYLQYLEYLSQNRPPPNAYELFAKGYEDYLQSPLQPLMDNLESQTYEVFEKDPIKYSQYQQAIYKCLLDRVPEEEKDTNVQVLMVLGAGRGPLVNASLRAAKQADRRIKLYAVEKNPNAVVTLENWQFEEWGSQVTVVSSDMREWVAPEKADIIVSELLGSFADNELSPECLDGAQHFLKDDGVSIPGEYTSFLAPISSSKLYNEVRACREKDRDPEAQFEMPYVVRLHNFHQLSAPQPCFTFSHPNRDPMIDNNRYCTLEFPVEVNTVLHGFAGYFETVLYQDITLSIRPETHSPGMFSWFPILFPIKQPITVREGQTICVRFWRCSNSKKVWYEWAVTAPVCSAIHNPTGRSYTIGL
Chain of human PRMT5/MEP50 (Q9BQA1 whole entry partner): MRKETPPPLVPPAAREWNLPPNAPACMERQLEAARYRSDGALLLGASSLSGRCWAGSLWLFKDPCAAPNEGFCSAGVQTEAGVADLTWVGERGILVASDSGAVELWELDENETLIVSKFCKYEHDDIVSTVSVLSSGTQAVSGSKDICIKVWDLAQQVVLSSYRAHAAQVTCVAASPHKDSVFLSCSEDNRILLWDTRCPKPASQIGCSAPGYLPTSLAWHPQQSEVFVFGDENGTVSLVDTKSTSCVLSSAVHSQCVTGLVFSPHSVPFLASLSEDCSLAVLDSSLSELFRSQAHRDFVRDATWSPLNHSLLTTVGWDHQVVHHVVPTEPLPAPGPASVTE

Structure (SMILES) | pIC50
O=C(NCC(O)CN1CCc2c([nH]c3ccccc23)C1)N1CCCC(c2ccccc2)C1 (stereo not drawn) [Example 24, N-(2-hydroxy-3-(1,3,4,9-tetrahydro-2H-pyrido[3,4-b]indol-2-yl)propyl)-3-phenylpiperidine-1-carboxamide] | 4.27
O=C(OCC(O)CN1CCc2c([nH]c3ccccc23)C1)N1CCc2ccccc2C1 (stereo not drawn) [Example 21, 2-Hydroxy-3-(1,3,4,9-tetrahydro-2H-pyrido[3,4-b]indol-2-yl)propyl 3,4-dihydroisoquinoline-2(1H)-carboxylate] | 5.21
O=C(NCC(O)CN1CCc2c([nH]c3ccccc23)C1)c1ccc(C(=O)N2C3CCC2COC3)cc1 (stereo not drawn) [Example 14, N-(2-hydroxy-3-{1H,2H,3H,4H,9H-pyrido[3,4-b]indol-2-yl}propyl)-4-({3-oxa-8-azabicyclo[3.2.1]octan-8-yl}carbonyl)benzamide] | 5.79
O=C(NCC(O)CN1CCc2c([nH]c3ccccc23)C1)c1cc(NC2CCC2)ncn1 (stereo not drawn) [Example 11, 6-(Cyclobutylamino)-N-(2-hydroxy-3-{1H,2H,3H,4H,9H-pyrido[3,4-b]indol-2-yl}propyl)pyrimidine-4-carboxamide] | 6.34
Cn1c2c(c3ccccc31)CCN(CC(O)CNC(=O)c1cc(NC3CCC3)ncn1)C2 (stereo not drawn) [Example 17, 6-(cyclobutylamino)-N-(2-hydroxy-3-{9-methyl-1H,2H,3H,4H,9H-pyrido[3,4-b]indol-2-yl}propyl)pyrimidine-4-carboxamide] | 5.10
CN1CCN(c2nc(NC3CCC3)cc(C(=O)NCC(O)CN3CCc4c(n(C)c5ccccc45)C3)n2)CC1 (stereo not drawn) [Example 15, 6-(cyclobutylamino)-N-(2-hydroxy-3-{9-methyl-1H,2H,3H,4H,9H-pyrido[3,4-b]indol-2-yl}propyl)-2-(4-methylpiperazin-1-yl)pyrimidine-4-carboxamide] | 6.32
CN1CCN(c2cc(C(=O)NCC(O)CN3CCc4c(c5ccccc5n4C)C3)cc(NC3CCC3)n2)CC1 (stereo not drawn) [Example 7, 2-(cyclobutylamino)-N-(2-hydroxy-3-{5-methyl-1H,2H,3H,4H,5H-pyrido[4,3-b]indol-2-yl}propyl)-6-(4-methylpiperazin-1-yl)pyridine-4-carboxamide] | 6.49
CC(=O)N1CCC(Nc2cc(C(=O)NC[C@H](O)CN3CCc4c([nH]c5ccccc45)C3)ncn2)CC1 [Example 26, (S)-6-((1-acetylpiperidin-4-yl)amino)-N-(2-hydroxy-3-(1,3,4,9-tetrahydro-2H-pyrido [3,4-b]indol-2-yl)propyl)pyrimidine-4-carboxamide] | 8.00
O=C(NCC(O)CN1CCc2c([nH]c3ccccc23)C1)N1CCC(c2ccccc2)C1 (stereo not drawn) [Example 23, N-(2-hydroxy-3-(1,3,4,9-tetrahydro-2H-pyrido[3,4-b]indol-2-yl)propyl)-3-phenyl pyrrolidine-1-carboxamide] | 4.12
O=C(NCC(O)CN1CCc2c([nH]c3ccccc23)C1)c1ccc(C(=O)N2CCOCC2)cc1 (stereo not drawn) [Example 13, N-(2-hydroxy-3-{1H,2H,3H,4H,9H-pyrido[3,4-b]indol-2-yl}propyl)-4-[(morpholin-4-yl)carbonyl]benzamide] | 5.69
CN1CCN(c2nc(NC3CCC3)cc(C(=O)NCC(O)CN3CCc4c([nH]c5ccccc45)C3)n2)CC1 (stereo not drawn) [Example 9, 6-(cyclobutylamino)-N-(2-hydroxy-3-{1H,2H,3H,4H,9H-pyrido[3,4-b]indol-2-yl}propyl)-2-(4-methylpiperazin-1-yl)pyrimidine-4-carboxamide] | 6.83
CC(=O)N1CCC(Nc2cc(C(=O)NCC(O)CN3CCn4c(cc5ccccc54)C3)ncn2)CC1 (stereo not drawn) [Example 28, 6-((1-acetylpiperidin-4-yl)amino)-N-(3-(3,4-dihydropyrazino[1,2-a]indol-2(1H)-yl)-2-hydroxypropyl)pyrimidine-4-carboxamide] | 7.35
CN1CCN(c2cc(C(=O)NCC(O)CN3CCc4[nH]c5ccccc5c4C3)cc(NC3CCC3)n2)CC1 (stereo not drawn) [Example 2, 2-(cyclobutylamino)-N-(2-hydroxy-3-{1H,2H,3H,4H,5H-pyrido[4,3-b]indol-2-yl}propyl)-6-(4-methylpiperazin-1-yl)pyridine-4-carboxamide] | 6.11
CC(=O)N1CCC(Nc2cc(C(=O)NCC(O)CN3CCc4c(n(C)c5ccccc45)C3)ncn2)CC1 (stereo not drawn) [Example 18, 6-[(1-acetylpiperidin-4-yl)amino]-N-(2-hydroxy-3-{9-methyl-1H,2H,3H,4H,9H-pyrido[3,4-b]indol-2-yl}propyl)pyrimidine-4-carboxamide] | 5.69
CC(=O)N1CCC(Nc2cc(C(=O)NC[C@@H](O)CN3CCc4c([nH]c5ccccc45)C3)ncn2)CC1 [Example 27, (R)-6-((1-acetylpiperidin-4-yl)amino)-N-(2-hydroxy-3-(1,3,4,9-tetrahydro-2H-pyrido [3,4-b]indol-2-yl)propyl)pyrimidine-4-carboxamide] | 6.80
O=C(OCC(O)CN1CCc2c([nH]c3ccccc23)C1)N1CCC(c2ccccc2)C1 (stereo not drawn) [Example 20, 2-hydroxy-3-(1,3,4,9-tetrahydro-2H-pyrido[3,4-b]indol-2-yl)propyl 3-phenylpyrrolidine-1-carboxylate] | 4.98
CN1CCN(c2nc(NC3CCC3)cc(C(=O)NCC(O)CN3CCc4c(c5ccccc5n4C)C3)n2)CC1 (stereo not drawn) [Example 6, 6-(cyclobutylamino)-N-(2-hydroxy-3-{5-methyl-1H,2H,3H,4H,5H-pyrido[4,3-b]indol-2-yl}propyl)-2-(4-methylpiperazin-1-yl)pyrimidine-4-carboxamide] | 6.97
CN1CCN(c2cc(C(=O)NCC(O)CN3CCc4c(n(C)c5ccccc45)C3)cc(NC3CCC3)n2)CC1 (stereo not drawn) [Example 16, 2-(cyclobutylamino)-N-(2-hydroxy-3-{9-methyl-1H,2H,3H,4H,9H-pyrido[3,4-b]indol-2-yl}propyl)-6-(4-methylpiperazin-1-yl)pyridine-4-carboxamide] | 6.54
O=C(NCC(O)CN1CCc2c([nH]c3ccccc23)C1)N1CCc2ccccc2C1 (stereo not drawn) [Example 22, N-(2-hydroxy-3-(1,3,4,9-tetrahydro-2H-pyrido[3,4-b]indol-2-yl)propyl)-3,4-dihydroisoquinoline-2(1H)-carboxamide] | 4.68
CC(=O)N1CCC(Nc2cc(C(=O)NCC(O)CN3CCc4[nH]c5ccccc5c4C3)ncn2)CC1 (stereo not drawn) [Example 4, 6-[(1-acetylpiperidin-4-yl)amino]-N-(2-hydroxy-3-{1H,2H,3H,4H,5H-pyrido[4,3-b]indol-2-yl}propyl)pyrimidine-4-carboxamide] | 6.27
CN1CCN(c2cc(C(=O)NCC(O)CN3CCc4c([nH]c5ccccc45)C3)cc(NC3CCC3)n2)CC1 (stereo not drawn) [Example 10, 2-(cyclobutylamino)-N-(2-hydroxy-3-{1H,2H,3H,4H,9H-pyrido[3,4-b]indol-2-yl}propyl)-6-(4-methylpiperazin-1-yl)pyridine-4-carboxamide] | 7.17
Cn1c2c(c3ccccc31)CCN(CC(O)CNC(=O)c1ccc(C(=O)N3C4CCC3COC4)cc1)C2 (stereo not drawn) [Example 19, N-(2-hydroxy-3-{9-methyl-1H,2H,3H,4H,9H-pyrido[3,4-b]indol-2-yl}propyl)-4-({3-oxa-8-azabicyclo[3.2.1]octan-8-yl}carbonyl)benzamide] | 4.57
CC(=O)N1CCC(Nc2cc(C(=O)NCCCN3CCc4c([nH]c5ccccc45)C3)ncn2)CC1 [Example 25, 6-((1-acetylpiperidin-4-yl)amino)-N-(3-(1,3,4,9-tetrahydro-2H-pyrido[3,4-b]indol-2-yl)propyl)pyrimidine-4-carboxamide] | 7.00
CC(=O)N1CCC(Nc2cc(C(=O)NCC(O)CN3CCc4c([nH]c5ccccc45)C3)ncn2)CC1 (stereo not drawn) [Example 12, 6-[(1-acetylpiperidin-4-yl)amino]-N-(2-hydroxy-3-{1H,2H,3H,4H,9H-pyrido[3,4-b]indol-2-yl}propyl)pyrimidine-4-carboxamide] | 7.07
